The values that follow are results of earlier work, collected in paper PMC12169662, “De Novo-Designed APC/C Inhibitors Provide a Rationale for Targeting RING-Type E3 Ubiquitin Ligases” (Journal of Medicinal Chemistry, 2025).

The data set addresses APC/C. Conditions: determined by the same methodology; ref not given; read-out: K i of apcin; cited from earlier work. How it is done: To quantify the inhibitory effectiveness of H6, its IC50 was determined. To this end, we performed in vitro APC/C ubiquitination assays in the presence of H6 titrated from 0.01 to 100 μM (Figure S17B). […] To distinguish between competitive and noncompetitive inhibition, we determin ...

On to `Cc1ncc([N+](=O)[O-])n1CCOC(=O)NC(Nc1ncccn1)C(Cl)(Cl)Cl` (stereo not shown) [apcin], for which the Ki was 23 µM.
